Measured values reported in US20240216335A1, “COMPOSITION FOR INCREASING LEUKOCYTES AND/OR BASOPHILS” (SUNTORY HOLDINGS LIMITED, priority 2021, published 2024).

Experiments:
[1] = target: T1, recombinant human epidermal growth factor receptor (EGFR) tyrosine kinase (Homo sapiens, UniProt P00533); test: Evaluation of activity to inhibit substrate binding of EGFR tyrosine kinase ([32P]Poly(Glu:Tyr) formation, Eurofins Panlabs); assay type: biochemical; settings: 100 or 1000 μM L-ergothioneine, HEPES buffer pH 7.4, 37° C., 10 μM ATP, 0.2 mg/mL Poly(Glu:Tyr)
T1 construct: host or cells: insect cells
T1 sequence (P00533 25-1210): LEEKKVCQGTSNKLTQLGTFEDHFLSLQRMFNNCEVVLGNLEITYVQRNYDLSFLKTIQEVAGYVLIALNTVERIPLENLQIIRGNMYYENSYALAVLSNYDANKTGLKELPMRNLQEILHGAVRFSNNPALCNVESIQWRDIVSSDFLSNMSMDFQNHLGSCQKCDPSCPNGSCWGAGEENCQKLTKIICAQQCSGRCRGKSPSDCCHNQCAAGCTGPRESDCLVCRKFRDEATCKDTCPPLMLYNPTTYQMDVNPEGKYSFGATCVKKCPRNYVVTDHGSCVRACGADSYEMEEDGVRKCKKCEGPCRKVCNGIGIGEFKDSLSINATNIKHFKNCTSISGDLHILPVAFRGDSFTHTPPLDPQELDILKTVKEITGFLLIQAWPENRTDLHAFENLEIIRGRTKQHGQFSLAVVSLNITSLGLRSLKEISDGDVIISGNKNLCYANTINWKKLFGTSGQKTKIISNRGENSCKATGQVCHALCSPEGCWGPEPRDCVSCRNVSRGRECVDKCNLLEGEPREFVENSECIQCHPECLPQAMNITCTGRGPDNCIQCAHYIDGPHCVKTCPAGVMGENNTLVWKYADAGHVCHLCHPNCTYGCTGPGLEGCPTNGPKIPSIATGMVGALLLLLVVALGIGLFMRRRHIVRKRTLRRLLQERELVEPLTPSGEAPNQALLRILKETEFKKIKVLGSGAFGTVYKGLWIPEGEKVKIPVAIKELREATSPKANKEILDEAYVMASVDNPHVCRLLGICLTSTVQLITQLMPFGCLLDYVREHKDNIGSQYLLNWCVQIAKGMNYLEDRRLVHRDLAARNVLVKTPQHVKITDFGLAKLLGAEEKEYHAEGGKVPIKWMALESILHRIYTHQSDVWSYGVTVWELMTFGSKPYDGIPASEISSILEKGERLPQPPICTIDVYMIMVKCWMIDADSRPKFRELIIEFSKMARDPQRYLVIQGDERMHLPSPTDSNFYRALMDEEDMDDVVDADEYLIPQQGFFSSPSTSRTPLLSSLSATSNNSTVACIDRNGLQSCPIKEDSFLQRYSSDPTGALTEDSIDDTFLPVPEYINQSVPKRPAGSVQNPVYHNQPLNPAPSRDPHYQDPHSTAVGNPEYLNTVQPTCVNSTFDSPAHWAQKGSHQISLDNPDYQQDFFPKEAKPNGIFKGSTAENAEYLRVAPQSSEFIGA
Procedure: The study was commissioned to Eurofins Panlabs. The study was performed using recombinant human epidermal growth factor receptor (EGFR) tyrosine kinase expressed in insect cells. First, epidermal growth factor receptor (EGFR) tyrosine kinase (0.134 μg/mL) was incubated in HEPES buffer (pH 7.4) with 100 or 1000 μM L-ergothioneine at 37° C. for 15 minutes. Then, 0.2 mg/mL Poly(Glu:Tyr), 10 μM ATP, and 0.25 μCi [γ^32P] ATP were added. Thereby, an enzymatic reaction was initiated. After incubating at 37° ° C. for 30 minutes, 3% H3PO4 was added to terminate the reaction. Lastly, the activity of ergothioneine to inhibit substrate binding was evaluated using the amount of [^32P]Poly(Glu:Tyr) formed in the reaction as an index.

[2] = system: IL-6, IL-12p40, IL-1β, and IL-10; settings: absence of the TLR ligand, ergothioneine concentration 0 or 10 mM; cited from earlier work
[3] = system: blood leukocytes and basophils; test: Study on evaluation of blood leukocyte count and basophil count in humans (placebo-controlled, randomized, double-blind, parallel-group); assay type: in vivo; settings: one capsule with 20 mg L-ergothioneine per day orally for four weeks, week 4 vs pre-testing, compared with control food group
Procedure: In order to evaluate the influence of supplements containing ergothioneine on blood leukocyte count and basophil count in humans, a placebo-controlled, randomized, double-blind, parallel-group study was conducted on subjects including male and female adults (46 subjects in a test food group; 46 subjects in a control food group; 92 subjects in total). In this study, one capsule containing 20 mg ergothioneine (test food) or one capsule not containing ergothioneine (control food) was fed per day for four weeks. The blood leukocyte count and basophil count in each subject were measured for pre-testing before starting the study (before starting ingestion of the test food or control food). After ingestion of the test food or control food for four weeks, the blood leukocyte count and basophil count in each subject were measured again (testing on week 4). […] Specifically, the amount of change in the test food group at the time of testing on week 4 was determined for the test food group by subtracting the blood leukocyte count (average) at the time of pre-testing from the blood leukocyte count (average) at the time of testing on week 4. Similarly, the amount of change at the time of testing on week 4 was determined for the control food group by subtracting the blood leukocyte count (average) at the time of pre-testing from the blood leukocyte count (average) at the time of testing on week 4. […]

[4] = mice orally administered with ergothioneine vs mice not administered; cited from earlier work

C[N+](C)(C)[C@@H](Cc1c[nH]c(=S)[nH]1)C(=O)[O-] [L-ergothioneine]
activity to inhibit substrate binding of epidermal growth factor receptor (EGFR) tyrosine kinase [1]: showed an activity to inhibit substrate binding
detection of IL-6, IL-12p40, IL-1β, and IL-10 [2]: none of IL-6, IL-12p40, IL-1β, and IL-10 was detected
amount of change in blood basophil count (Δ in basophils (%)) [3]: significantly increased
amount of change in blood leukocyte count (Δ in leukocytes (cells/μL)) [3]: significantly increased
peritesticular fat weight [4]: lower
triglyceride (neutral fat) level in plasma [4]: lower
